Measurements: article PMC8231113, “Protein Secondary Structure Affects Glycan Clustering in Native Mass Spectrometry” (Life, 2021)

Columns and labels:
[1] = tested on: mutated hNoV GII.4 MI001 P dimer; assay: Native MS corrected glycan binding to mutated MI001 P domain; parameters: species or system human norovirus (hNoV); conditions: cyt c reference; 100 µM glycan
[2] = biological target: T1, L-lactic dehydrogenase from rabbit muscle (LDH) (Oryctolagus cuniculus, UniProt P13491); assay: Native MS glycan clustering to reference protein LDH; type: binding; conditions: on LDH
T1 construct: L-lactic dehydrogenase from rabbit muscle (LDH, CAS number 9001-60-9); purchased Sigma-Aldrich (Merck, Germany); host or cells: rabbit muscle
Description: (§1) Prior to MS analysis, purified P dimers were buffer exchanged to 150 mM ammonium acetate (Sigma-Aldrich, reagent grade ≥98%) at pH 7 via centrifugal filter units at 12,000× g at 4 °C (Vivaspin 500, MWCO 10000, Sartorius). Glycans for native MS analysis were mixed with 1 µM (per monomer) purified GII.4 Saga P dimer and 3 µM of the reference proteins at indicated concentrations. Native mass spectra were measured at room temperature in positive ion mode on a high mass modified LCT Premier mass spectrometer (Waters/Micromass, UK and MS Vision, the Netherlands) with a nano-ESI source. In house-made gold-coated electrospray capillaries were used for direct-sample infusion without any accessory chromatographic separation. The voltages and pressures were optimized for non-covalent protein complexes. The gas pressure used in the source hexapole was set between 6.5 and 6.8 × 10^−2 mbar argon optimized for minimal complex dissociation and the backing pressure of the source roughing pump was set between 7.0 and 8.5 mbar. Spectra were recorded with applied voltages for the capillary and cone of 1.20 kV and 240 V, respectively. Note that charge state distributions for P dimers were sometimes slightly shifted as was the degree of glycan clustering per charge state. These changes were highly variable and not quantifiable.
(§2) For calibration of the raw data, a 25 mg/mL cesium iodide spectrum from the same day was used. MassLynx V4.1 (Waters, Manchester, UK) was used to assign peak series to protein species and to determine the mass after minimal smoothing. Furthermore, OriginPro 2016 SR2 (OriginLab, Northampton, MA, USA) was used for spectral deconvolution and curve fitting. Correction for nonspecific protein-ligand clustering was performed as described. Corrected peak areas were averaged and normalized to the free-protein signal. Data were based on at least three independent measurements. Python code Panda and Numpy package were used to calculate the specific binding of P dimers according to the glycan clustering ratio obtained from the selected reference protein candidates. Seaborn and matplotlib.pyplot package were imported into a python script to plot the results. The module of sklearn.linear model was applied for linear regression. The matplotlib and heatmap package were used to plot the heatmap.
(§3) Theoretically, the KD is calculated by measuring the concentration of the three components (Pfree, Lfree, PL) in solution. Usually, these values are only indirectly accessible because they require ligand titration up to binding saturation. However, native MS allows for the directly measurement of Pfree and PL, from which Lfree can be calculated using the input concentrations. In the present work, the non-covalent interaction was measured in the gas phase assuming identical ESI and detection efficiency for free and glycan-associated proteins, both for the analyte and the reference protein. […] For P dimers, the equations reflect glycan binding to the individual monomers assuming that binding sites on each monomer are equal and independent.
Using R described in Equation (3), the KD calculation can be re-written into Equation (4) with the known initial concentration of glycan ligand [L0] and protein [P0], adapted from Sun et al.:(3) R=PLequil∕Pequil=∑nA(PL^n+)∕n∕∑nA(P^n+)∕n (4) KD =L0−RP0/1+R/R
For the carbohydrate-binding experiments, it was essential to keep the initial protein concentrations and pH value constant during the analysis of the protein-carbohydrate solutions. While acidification occurs in any ESI droplet, the remaining solution in the capillary changes pH over time. Therefore, accumulated spectra were obtained within 10 min after the voltages were applied to minimize the influence of pH changes during the measurements. […]

GII.4 Saga P dimer = GII.4 Saga P dimer (Norovirus GII.4 (human norovirus), UniProt B5BTR7); assay: Native MS, specific glycan binding to P dimer after reference protein correction; parameters: species or system human norovirus (hNoV)
Description: as §1, §2
Data from native ESI MS measurements were translated into dissociation constants (KD values). The detailed calculations were based on the equations listed below. A protein (P) and a glycan ligand (L) form a complex through non-covalent interactions leading to a reversible association described by (Equation (1)):(1) P+L⇌PL when equilibrium is reached, the KD can be calculated directly from the concentrations via the law of mass action (Equation (2)):(2) KD=[Pfree][Lfree]/[PL]
as §3
Using R described in Equation (3), the KD calculation can be re-written into Equation (4) with the known initial concentration of glycan ligand [L0] and protein [P0], adapted from Sun et al.:(3) R=PLequil∕Pequil=∑nA(PL^n+)∕n∕∑nA(P^n+)∕n (4) KD =L0−RP0/1+R/R […]

CC(=O)N[C@H]1[C@H](O[C@H]2[C@@H](O)[C@@H](CO)O[C@H](O[C@@H]3[C@H](O)[C@@H](O)[C@H](O[C@H]4[C@H](O)[C@@H](O)C(O)O[C@@H]4CO)O[C@@H]3CO)[C@@H]2O)O[C@H](CO)[C@H](O)[C@@H]1O (stereo partly drawn) [Gb4, GalNAc β1-3 Galα1-4Galβ1-4Glc]
corrected binding to mutated MI001 P dimer [1]: basically no binding | Glycan-Clustering Ratio R ([2]; 100 µM glycan): 0.35±0.04 | Glycan-Clustering Ratio R ([2]; 200 µM glycan): 0.51±0.08 | Glycan-Clustering Ratio R ([2]; 300 µM glycan): 0.68±0.02 | Glycan-Clustering Ratio R ([2]; 400 µM glycan): 0.80±0.01 | Glycan-Clustering Ratio R ([2]; 500 µM glycan): 0.91±0.06 | specific binding after ADH based protein clustering correction (GII.4 Saga P dimer; Gb4: any listed glycan concentration, HBGA B: 500 µM): no specific binding | Bound number of carbohydrates on Saga P dimer (GII.4 Saga P dimer; ref. protein ADH, glycan 100 µM): 0 | Bound number of carbohydrates on Saga P dimer (GII.4 Saga P dimer; ref. protein ADH, glycan 200 µM): 0 | Bound number of carbohydrates on Saga P dimer (GII.4 Saga P dimer; ref. protein ADH, glycan 300 µM): 0 | Bound number of carbohydrates on Saga P dimer (GII.4 Saga P dimer; ref. protein ADH, glycan 400 µM): 0 | Bound number of carbohydrates on Saga P dimer (GII.4 Saga P dimer; ref. protein ADH, glycan 500 µM): 0 | Bound number of carbohydrates on Saga P dimer (GII.4 Saga P dimer; ref. protein CA, glycan 100 µM): 1 | Bound number of carbohydrates on Saga P dimer (GII.4 Saga P dimer; ref. protein CA, glycan 200 µM): 1 | Bound number of carbohydrates on Saga P dimer (GII.4 Saga P dimer; ref. protein CA, glycan 300 µM): 2 | Bound number of carbohydrates on Saga P dimer (GII.4 Saga P dimer; ref. protein CA, glycan 400 µM): 2 | Bound number of carbohydrates on Saga P dimer (GII.4 Saga P dimer; ref. protein CA, glycan 500 µM): 2 | Bound number of carbohydrates on Saga P dimer (GII.4 Saga P dimer; ref. protein Cyto c, glycan 100 µM): 1 | Bound number of carbohydrates on Saga P dimer (GII.4 Saga P dimer; ref. protein Cyto c, glycan 200 µM): 2 | Bound number of carbohydrates on Saga P dimer (GII.4 Saga P dimer; ref. protein Cyto c, glycan 300 µM): 3 | Bound number of carbohydrates on Saga P dimer (GII.4 Saga P dimer; ref. protein Cyto c, glycan 400 µM): 3 | Bound number of carbohydrates on Saga P dimer (GII.4 Saga P dimer; ref. protein Cyto c, glycan 500 µM): 4 | Bound number of carbohydrates on Saga P dimer (GII.4 Saga P dimer; ref. protein GFP, glycan 100 µM): 2 | Bound number of carbohydrates on Saga P dimer (GII.4 Saga P dimer; ref. protein GFP, glycan 200 µM): 2 | Bound number of carbohydrates on Saga P dimer (GII.4 Saga P dimer; ref. protein GFP, glycan 300 µM): 2 | Bound number of carbohydrates on Saga P dimer (GII.4 Saga P dimer; ref. protein GFP, glycan 400 µM): 2 | Bound number of carbohydrates on Saga P dimer (GII.4 Saga P dimer; ref. protein GFP, glycan 500 µM): 2 | Bound number of carbohydrates on Saga P dimer (GII.4 Saga P dimer; ref. protein LDH, glycan 100 µM): 0 | Bound number of carbohydrates on Saga P dimer (GII.4 Saga P dimer; ref. protein LDH, glycan 200 µM): 0 | Bound number of carbohydrates on Saga P dimer (GII.4 Saga P dimer; ref. protein LDH, glycan 300 µM): 0 | Bound number of carbohydrates on Saga P dimer (GII.4 Saga P dimer; ref. protein LDH, glycan 400 µM): 0 | Bound number of carbohydrates on Saga P dimer (GII.4 Saga P dimer; ref. protein LDH, glycan 500 µM): 1 | Bound number of carbohydrates on Saga P dimer (GII.4 Saga P dimer; ref. protein Myo, glycan 100 µM): 2 | Bound number of carbohydrates on Saga P dimer (GII.4 Saga P dimer; ref. protein Myo, glycan 200 µM): 3 | Bound number of carbohydrates on Saga P dimer (GII.4 Saga P dimer; ref. protein Myo, glycan 300 µM): 3 | Bound number of carbohydrates on Saga P dimer (GII.4 Saga P dimer; ref. protein Myo, glycan 400 µM): 3 | Bound number of carbohydrates on Saga P dimer (GII.4 Saga P dimer; ref. protein Myo, glycan 500 µM): 4 | Bound number of carbohydrates on Saga P dimer (GII.4 Saga P dimer; ref. protein Ubq, glycan 100 µM): 2 | Bound number of carbohydrates on Saga P dimer (GII.4 Saga P dimer; ref. protein Ubq, glycan 200 µM): 3 | Bound number of carbohydrates on Saga P dimer (GII.4 Saga P dimer; ref. protein Ubq, glycan 300 µM): 4 | Bound number of carbohydrates on Saga P dimer (GII.4 Saga P dimer; ref. protein Ubq, glycan 400 µM): 4 | Bound number of carbohydrates on Saga P dimer (GII.4 Saga P dimer; ref. protein Ubq, glycan 500 µM): 4 | Bound number of carbohydrates on Saga P dimer (GII.4 Saga P dimer; ref. protein apo-TFF, glycan 100 µM): 0 | Bound number of carbohydrates on Saga P dimer (GII.4 Saga P dimer; ref. protein apo-TFF, glycan 200 µM): 0 | Bound number of carbohydrates on Saga P dimer (GII.4 Saga P dimer; ref. protein apo-TFF, glycan 300 µM): 1 | Bound number of carbohydrates on Saga P dimer (GII.4 Saga P dimer; ref. protein apo-TFF, glycan 400 µM): 1 | Bound number of carbohydrates on Saga P dimer (GII.4 Saga P dimer; ref. protein apo-TFF, glycan 500 µM): 1
